# According to ChEMBL document CHEMBL1201862, “PubChem BioAssay data set” (2004):
# Activity calls are given as the source filed them.
# What was measured:
# [1] = tested on: HEK293; assay: cells; settings: Homo sapiens
# [2] = ZM109 Env clade C HIV-1 fusion inhibitors, dose response, HeLa effector, CEM target cells, luciferase, cherry-pick (AID 652058); format: functional, cell-based
# [3] = inhibitors of clade B AD8 Env fusion, dose response, cell-based, cherry-pick (AID 652062); format: functional;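 further: luciferase signal from cell-cell fusion driven by HIV-1 clade B AD8 Env; potency is for inhibitors of fusion seen as a drop in luminescence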
# [4] = inhibitors of HIV Env-driven cell fusion, dose response, cherry-pick (AID 652057); format: functional, cell-based
# [5] = off-target signal loss in HeLa-CEM21 co-culture – HeLa F-luc CTL cells, cherry-picked, counter-screen for HIV-1 Env fusion inhibitor project, dose response (AID 652040); format: functional, cell-based;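 further: potency for signal decrease marking cytotoxic or nonspecific inhibition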
# [6] = tested on: HEK293; assay: cells; settings: Homo sapiens; remark: listed apart in the source
# [7] = tested on: Streptococcus sp. 'group A'; assay: growth inhibition of control SK(-) GAS strain, dose response, counter-screen for streptokinase expression inhibitor project, luminescence, kanamycin, BacTiterGlo, confirmation (AID 1900); format: functional, organism-based
# [8] = CEM21 lymphoblast cell cytotoxicity, dose response, cytotoxicity control for viral fusion inhibitor project, CellTiter-Glo luminescence, cherry-picked (AID 652042); format: functional, cell-based;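 further: potency for signal decrease meaning cytotoxicity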
# [9] = target: T1, Streptokinase A (Streptococcus pyogenes serotype M1, UniProt P10520); assay: S. pyogenes streptokinase expression inhibitors, potency, dose response, plasminogen activation absorbance, OD405 (AID 1914); format: functional, Streptococcus pyogenes M1 GAS;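 further: secreted streptokinase activity via plasminogen activation per viability signal from cell pellet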
# T1 sequence (P10520 whole entry): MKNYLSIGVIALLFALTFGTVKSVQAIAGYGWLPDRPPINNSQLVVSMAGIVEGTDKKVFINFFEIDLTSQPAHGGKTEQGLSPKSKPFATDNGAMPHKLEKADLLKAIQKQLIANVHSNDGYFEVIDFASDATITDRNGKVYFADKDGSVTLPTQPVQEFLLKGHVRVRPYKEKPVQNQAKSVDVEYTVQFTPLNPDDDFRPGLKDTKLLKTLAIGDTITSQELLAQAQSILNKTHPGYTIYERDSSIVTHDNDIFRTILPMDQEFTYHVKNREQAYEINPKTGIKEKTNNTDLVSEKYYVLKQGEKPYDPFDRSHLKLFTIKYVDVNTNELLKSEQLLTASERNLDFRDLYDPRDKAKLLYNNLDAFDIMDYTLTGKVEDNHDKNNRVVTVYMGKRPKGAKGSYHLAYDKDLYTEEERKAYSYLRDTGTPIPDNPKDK
# [10] = tested on: Streptococcus; assay: Group A Streptococcus viability loss, dose response, counter-screen for streptokinase expression inhibitor project, luminescence, BacTiterGlo (AID 1915); format: functional, organism-based;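 further: potency for reduction of bacterial viability or growth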
# [11] = target: T2, Long-chain-fatty-acid--AMP ligase FadD28 (Mycobacterium tuberculosis, UniProt P9WQ59); assay: Fluorescence polarization aasay to screen for inhibitors that compete for the binding of FadD28 to a bisubstrate Measured in Biochemical System Using Plate Reader - 2147-01_Inhibitor_Dose_CherryPick_Activity.; format: functional, Mycobacterium tuberculosis H37Rv
# T2 sequence (P9WQ59 whole entry): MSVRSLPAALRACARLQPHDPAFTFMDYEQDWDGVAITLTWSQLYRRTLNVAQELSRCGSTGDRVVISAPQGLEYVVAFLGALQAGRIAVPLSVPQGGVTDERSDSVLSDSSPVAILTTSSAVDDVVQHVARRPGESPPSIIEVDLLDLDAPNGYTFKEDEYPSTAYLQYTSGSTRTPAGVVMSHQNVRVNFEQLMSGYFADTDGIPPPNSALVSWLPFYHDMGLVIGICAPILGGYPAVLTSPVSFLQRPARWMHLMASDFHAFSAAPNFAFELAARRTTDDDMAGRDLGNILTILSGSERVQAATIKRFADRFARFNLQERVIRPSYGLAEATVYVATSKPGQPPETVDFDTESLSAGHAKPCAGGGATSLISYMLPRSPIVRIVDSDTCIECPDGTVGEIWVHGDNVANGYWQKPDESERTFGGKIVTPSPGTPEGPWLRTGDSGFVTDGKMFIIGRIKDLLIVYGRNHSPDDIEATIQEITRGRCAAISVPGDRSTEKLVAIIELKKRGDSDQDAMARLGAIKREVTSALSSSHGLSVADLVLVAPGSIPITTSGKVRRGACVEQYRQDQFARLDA
# [12] = HeLa cell cytotoxicity, dose response, cytotoxicity control for MgcRacGAP inhibitor project (AID 624300); format: functional
# [13] = target: T3, Rac GTPase-activating protein 1 (Homo sapiens, UniProt Q9H0H5); assay: MgcRacGAP GTPase-activating activity inhibitors, confirmation, biochemical, ADP Hunter fluorescence, primary and confirmatory (AID 624330); format: functional
# T3 sequence (Q9H0H5 whole entry): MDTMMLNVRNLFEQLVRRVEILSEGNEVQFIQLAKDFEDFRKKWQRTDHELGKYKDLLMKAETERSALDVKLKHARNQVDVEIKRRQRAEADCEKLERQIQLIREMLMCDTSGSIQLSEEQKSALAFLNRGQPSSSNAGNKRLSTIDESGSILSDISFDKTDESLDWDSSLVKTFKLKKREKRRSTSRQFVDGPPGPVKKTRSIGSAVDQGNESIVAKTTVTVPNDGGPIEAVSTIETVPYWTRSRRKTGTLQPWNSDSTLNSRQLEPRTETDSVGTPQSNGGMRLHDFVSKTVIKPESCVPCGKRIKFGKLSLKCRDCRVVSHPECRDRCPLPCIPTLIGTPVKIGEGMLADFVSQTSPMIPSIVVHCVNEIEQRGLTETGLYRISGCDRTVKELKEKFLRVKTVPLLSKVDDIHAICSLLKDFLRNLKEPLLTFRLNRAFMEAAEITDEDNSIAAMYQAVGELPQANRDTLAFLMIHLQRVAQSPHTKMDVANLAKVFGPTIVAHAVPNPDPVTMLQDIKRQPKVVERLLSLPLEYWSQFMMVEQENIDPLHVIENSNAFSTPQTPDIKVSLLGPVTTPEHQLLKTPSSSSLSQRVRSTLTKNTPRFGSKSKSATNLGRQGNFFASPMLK
# [14] = target: Large T antigen (Simian virus 40, UniProt P03070); format: functional, Betapolyomavirus macacae;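 further: Confirmatory-stage PubChem screen for compounds that inhibit SV40 T antigen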
# [15] = target: T4, Tyrosyl-DNA phosphodiesterase 2 (Homo sapiens, UniProt O95551); assay: human TDP2 enzyme inhibitors, dose response, biochemical, epi absorbance, IC50 (AID 743297)
# T4 sequence (O95551 whole entry): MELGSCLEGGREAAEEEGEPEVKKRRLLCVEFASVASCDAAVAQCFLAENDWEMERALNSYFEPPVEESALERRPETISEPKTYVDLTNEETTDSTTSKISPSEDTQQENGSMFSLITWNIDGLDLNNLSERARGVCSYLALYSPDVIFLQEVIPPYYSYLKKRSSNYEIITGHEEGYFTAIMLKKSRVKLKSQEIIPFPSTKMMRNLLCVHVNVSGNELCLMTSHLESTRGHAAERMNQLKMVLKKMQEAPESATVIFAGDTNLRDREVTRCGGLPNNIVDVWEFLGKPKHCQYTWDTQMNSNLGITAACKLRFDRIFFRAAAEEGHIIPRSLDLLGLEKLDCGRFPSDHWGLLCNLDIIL
# [16] = target: T5, Hexokinase HKDC1 (Homo sapiens, UniProt Q2TB90); assay: HKDC1 hexokinase inhibitors, dose response, biochemical, W721R variant (AID 504729); format: functional
# T5 sequence (Q2TB90 whole entry): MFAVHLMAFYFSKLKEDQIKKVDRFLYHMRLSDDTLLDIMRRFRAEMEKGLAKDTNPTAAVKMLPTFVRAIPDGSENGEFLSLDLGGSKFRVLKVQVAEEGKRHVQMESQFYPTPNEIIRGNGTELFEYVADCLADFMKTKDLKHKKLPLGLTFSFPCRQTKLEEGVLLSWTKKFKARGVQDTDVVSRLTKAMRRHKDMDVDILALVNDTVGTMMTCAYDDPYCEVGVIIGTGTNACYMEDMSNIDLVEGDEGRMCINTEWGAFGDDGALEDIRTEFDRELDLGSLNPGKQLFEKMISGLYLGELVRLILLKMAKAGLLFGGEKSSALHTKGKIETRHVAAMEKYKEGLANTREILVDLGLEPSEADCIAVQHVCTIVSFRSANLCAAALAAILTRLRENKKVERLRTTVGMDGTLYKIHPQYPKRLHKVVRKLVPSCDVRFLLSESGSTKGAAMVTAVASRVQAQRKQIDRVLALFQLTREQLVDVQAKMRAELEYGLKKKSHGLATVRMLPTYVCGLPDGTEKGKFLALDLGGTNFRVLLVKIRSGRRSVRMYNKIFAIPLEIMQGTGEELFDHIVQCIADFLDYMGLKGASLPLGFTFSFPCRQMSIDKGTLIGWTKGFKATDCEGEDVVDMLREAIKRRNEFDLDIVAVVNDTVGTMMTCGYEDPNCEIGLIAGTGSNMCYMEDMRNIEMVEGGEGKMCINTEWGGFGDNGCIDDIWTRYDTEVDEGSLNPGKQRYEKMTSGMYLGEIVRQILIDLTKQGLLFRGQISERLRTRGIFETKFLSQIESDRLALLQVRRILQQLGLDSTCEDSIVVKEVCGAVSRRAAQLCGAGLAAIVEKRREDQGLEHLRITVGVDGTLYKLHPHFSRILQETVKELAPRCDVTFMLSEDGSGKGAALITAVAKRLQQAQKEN
# [17] = tested on: Vero; assay: Vero cell cytotoxicity, cytotoxicity control for flavivirus capping enzyme inhibitors (AID 588742); format: functional; settings: Chlorocebus sabaeus
# [18] = target: Genome polyprotein (dengue virus type 2, UniProt P29990); assay: Dengue-2 NS5 methyltransferase inhibitors, primary screen, biochemical, confirmation dose response (AID 588689); format: functional
# [19] = target: T6, Microphthalmia-associated transcription factor (Homo sapiens, UniProt O75030); assay: TRPM1 promoter luciferase signal decrease, dose response, MITF inhibitor project, cell-based, SK-MEL-5, cherry-picked, set 3 (AID 493073); format: functional
# T6 sequence (O75030 whole entry): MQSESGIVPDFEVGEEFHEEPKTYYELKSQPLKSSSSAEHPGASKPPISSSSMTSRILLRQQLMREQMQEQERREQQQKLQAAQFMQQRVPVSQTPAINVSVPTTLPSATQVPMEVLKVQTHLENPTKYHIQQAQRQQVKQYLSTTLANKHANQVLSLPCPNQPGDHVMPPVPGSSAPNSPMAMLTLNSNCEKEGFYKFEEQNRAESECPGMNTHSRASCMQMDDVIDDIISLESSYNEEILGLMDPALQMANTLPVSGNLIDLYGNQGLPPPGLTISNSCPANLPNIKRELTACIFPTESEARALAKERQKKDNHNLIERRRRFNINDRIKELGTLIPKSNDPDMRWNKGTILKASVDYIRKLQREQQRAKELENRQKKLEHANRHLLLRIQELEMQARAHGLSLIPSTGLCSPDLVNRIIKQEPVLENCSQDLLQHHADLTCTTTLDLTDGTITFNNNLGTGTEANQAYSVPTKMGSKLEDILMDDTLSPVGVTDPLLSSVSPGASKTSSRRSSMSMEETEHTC
# [20] = Shn3 3'UTR reporter inhibitors, dose response, cell-based, Clone20 osteoblasts, firefly luciferase, cherry-picked (AID 624132); format: functional;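 further: firefly luciferase luminescence from reporter carrying the Shn3 3'UTR in osteoblasts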
# [21] = target: T7, Cytochrome P450 1A2 (Homo sapiens, UniProt P05177);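 further: PubChem cytochrome P450 panel assay, CYP1A2 panel member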
# T7 sequence (P05177 whole entry): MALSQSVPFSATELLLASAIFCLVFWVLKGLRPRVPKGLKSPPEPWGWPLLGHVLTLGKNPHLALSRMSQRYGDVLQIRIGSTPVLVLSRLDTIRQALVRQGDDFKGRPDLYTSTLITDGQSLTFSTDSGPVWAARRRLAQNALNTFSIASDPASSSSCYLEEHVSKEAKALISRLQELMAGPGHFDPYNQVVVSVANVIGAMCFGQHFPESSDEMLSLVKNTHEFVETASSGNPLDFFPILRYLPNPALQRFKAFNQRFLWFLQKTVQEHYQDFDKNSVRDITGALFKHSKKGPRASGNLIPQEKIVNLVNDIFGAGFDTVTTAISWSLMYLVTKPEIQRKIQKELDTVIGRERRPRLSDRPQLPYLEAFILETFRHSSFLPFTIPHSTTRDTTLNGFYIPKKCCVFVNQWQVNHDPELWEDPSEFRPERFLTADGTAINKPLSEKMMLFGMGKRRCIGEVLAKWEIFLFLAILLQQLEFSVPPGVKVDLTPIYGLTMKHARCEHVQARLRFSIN
# [22] = control 3'UTR Renilla luciferase suppression, dose response, counter-screen for Shn3 inhibitor project, cell-based, Clone20-Shn3RL, cherry-picked (AID 624133); format: functional
# [23] = HepG2 cell cytotoxicity, dose response, cytotoxicity control for Shn3 inhibitor project, CellTiter-Glo, cherry-picked (AID 624134); format: functional, cell-based
# Sequence of Genome polyprotein (P29990 2492-3391 limits assumed): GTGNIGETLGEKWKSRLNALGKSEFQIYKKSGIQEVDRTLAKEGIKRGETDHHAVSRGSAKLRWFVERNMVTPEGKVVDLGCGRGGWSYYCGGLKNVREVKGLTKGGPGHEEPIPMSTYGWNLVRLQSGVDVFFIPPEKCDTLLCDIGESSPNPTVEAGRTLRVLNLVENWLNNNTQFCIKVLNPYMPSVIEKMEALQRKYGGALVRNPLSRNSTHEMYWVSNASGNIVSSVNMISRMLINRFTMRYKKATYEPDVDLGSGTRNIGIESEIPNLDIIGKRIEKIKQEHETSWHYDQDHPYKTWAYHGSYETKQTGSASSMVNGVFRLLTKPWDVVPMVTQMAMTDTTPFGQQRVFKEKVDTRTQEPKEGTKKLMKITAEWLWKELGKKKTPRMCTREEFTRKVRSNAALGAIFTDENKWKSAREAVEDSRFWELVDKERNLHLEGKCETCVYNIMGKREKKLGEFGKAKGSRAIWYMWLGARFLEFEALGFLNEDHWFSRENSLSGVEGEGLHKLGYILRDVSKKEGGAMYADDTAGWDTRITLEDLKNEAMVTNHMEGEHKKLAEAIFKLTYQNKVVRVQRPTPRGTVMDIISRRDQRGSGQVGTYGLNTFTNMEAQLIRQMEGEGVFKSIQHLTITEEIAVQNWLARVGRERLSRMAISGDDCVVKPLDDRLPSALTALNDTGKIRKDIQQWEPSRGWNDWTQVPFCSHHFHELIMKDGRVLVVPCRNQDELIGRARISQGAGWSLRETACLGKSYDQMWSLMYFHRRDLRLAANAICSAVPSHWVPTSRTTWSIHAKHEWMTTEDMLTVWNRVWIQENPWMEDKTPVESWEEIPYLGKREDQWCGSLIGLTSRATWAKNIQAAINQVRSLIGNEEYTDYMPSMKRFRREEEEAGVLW
# Sequence of Large T antigen (P03070 whole entry): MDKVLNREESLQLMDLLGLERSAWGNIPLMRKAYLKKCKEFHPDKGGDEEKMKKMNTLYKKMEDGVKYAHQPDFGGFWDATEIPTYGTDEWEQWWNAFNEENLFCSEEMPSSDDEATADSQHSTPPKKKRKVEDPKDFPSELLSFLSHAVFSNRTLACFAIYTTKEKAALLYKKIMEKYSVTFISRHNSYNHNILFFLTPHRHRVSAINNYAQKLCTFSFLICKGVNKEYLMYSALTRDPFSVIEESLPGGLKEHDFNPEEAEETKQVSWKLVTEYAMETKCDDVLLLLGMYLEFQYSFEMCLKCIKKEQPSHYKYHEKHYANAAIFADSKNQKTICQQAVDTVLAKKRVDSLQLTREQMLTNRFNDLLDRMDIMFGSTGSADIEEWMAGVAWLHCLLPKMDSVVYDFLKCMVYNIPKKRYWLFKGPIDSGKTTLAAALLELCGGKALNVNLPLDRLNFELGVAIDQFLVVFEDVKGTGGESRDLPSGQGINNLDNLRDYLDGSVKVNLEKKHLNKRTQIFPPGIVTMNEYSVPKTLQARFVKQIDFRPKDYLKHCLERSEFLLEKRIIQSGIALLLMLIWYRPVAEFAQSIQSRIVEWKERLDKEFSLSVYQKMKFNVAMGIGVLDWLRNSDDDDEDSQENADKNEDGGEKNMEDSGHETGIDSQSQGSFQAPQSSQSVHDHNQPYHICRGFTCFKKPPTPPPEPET
compound,measurement,setting,value
CCC(C)(C)NC(=O)C(NS(=O)(=O)c1cccs1)c1ccccc1 (stereo not drawn),EC50,[1],> 59.6 µM (inactive)
same,AC50,[2],4.71 µM (active)
same,AC50,[3],5.84 µM (active)
same,AC50,[4],4.25 µM (active)
same,AC50,[5],4.24 µM (active)
same,EC50,[6],> 59.6 µM (inactive)
Cc1cccc(NC(=O)c2cc3n(n2)C(C(F)(F)F)CC(c2ccc4c(c2)OCO4)N3)c1 (stereo not drawn),EC50,[7],12.9 µM (active)
same,AC50,[2],7.75 µM (active)
same,AC50,[3],17 µM (active)
same,AC50,[4],7.49 µM (active)
same,AC50,[5],4.41 µM (active)
same,AC50,[8],61 µM (active)
same,EC50,[9],28.7 µM (active)
same,EC50,[10],139 µM (active)
COc1cc(/C=N/NC(=O)CN(Cc2ccccc2)S(=O)(=O)c2ccc3c(c2)OCCO3)ccc1O,AC50,[11],> 100 µM (inactive)
same,CC50,[12],100 µM (active)
same,IC50,[13],74.6 µM (active)
Cc1cccc(-n2c3nc(=O)[nH]c(=O)c-3cc3cc([N+](=O)[O-])ccc32)c1,IC50,[14],> 100 µM (active)
same,IC50,[15],> 128 µM (inactive)
same,IC50,[16],10.4 µM (active)
same,CC50,[17],24.8 µM (active)
same,IC50,[18],32.7 µM (active)
O=C(O)c1cccc(N/N=C/c2ccc(OC(F)(F)F)cc2)c1,AC50,[11],39.7 µM (active)
same,AC50,[19],5.95 µM (active)
O=C(Nc1ccc(Oc2ccccc2)cc1)C1CCN(c2c3c(nc4ncnn24)CCC3)CC1,AC50,[20],5.64 µM (active)
same,AC50,[2],9.59 µM (active)
same,AC50,[3],4.29 µM (active)
same,AC50,[4],3.83 µM (active)
same,AC50,[5],> 32 µM (inactive)
same,AC50,[21],15.8 µM (inconclusive)
same,AC50,[22],10.5 µM (active)
same,AC50,[8],42.7 µM (active)
same,AC50,[23],7.3 µM (active)
